Measurements taken from the supplement of paper PMC10307832.

Columns and labels:
Test in all cases: relative viability (nuclei count vs DMSO), 5 days (fraction); higher = more cells survive
[1] = compound: CCN(CC)CCNC(=O)c1c(C)[nH]c(/C=C2\C(=O)Nc3ccc(F)cc32)c1C [Sunitinib] + COc1cccc2cc(-c3nc([C@H]4CC[C@H](C(=O)O)CC4)n4ncnc(N)c34)[nH]c12 [OSI-027] (partner 0.5 µM)
Procedure, shortened: (§1)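 Lung cancer cell lines in 1536-well plates got either a single drug or a fixed anchor-drug dose together with five library-drug doses (not always all listed) in √10 steps, by pin tool, on the day after seeding. Nuclei were counted after 5 days, and relative viability is the treated-to-vehicle ratio of nuclei counts. Values are medians of duplicate plates.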

[2] = compound: CCN(CC)CCNC(=O)c1c(C)[nH]c(/C=C2\C(=O)Nc3ccc(F)cc32)c1C [Sunitinib] + CC(=O)Nc1cccc(-n2c(=O)n(C3CC3)c(=O)c3c(Nc4ccc(I)cc4F)n(C)c(=O)c(C)c32)c1 [Trametinib] (partner 0.02 µM)
Procedure, shortened: as §1

[3] = compound: CCN(CC)CCNC(=O)c1c(C)[nH]c(/C=C2\C(=O)Nc3ccc(F)cc32)c1C [Sunitinib] + N=C(N)NC(=N)NCCc1ccccc1 [Phenformin] (partner 250 µM)
Procedure, shortened: as §1

[4] = compound: CCN(CC)CCNC(=O)c1c(C)[nH]c(/C=C2\C(=O)Nc3ccc(F)cc32)c1C [Sunitinib] + C[C@@H](Oc1cc(-c2cnn(C3CCNCC3)c2)cnc1N)c1c(Cl)ccc(F)c1Cl [Crizotinib] (partner 1 µM)
Procedure, shortened: as §1

Cell Line | relative viability ([1]; first compound 0.02 µM) | relative viability ([1]; first compound 0.06325 µM) | relative viability ([1]; first compound 0.2 µM) | relative viability ([1]; first compound 0.6325 µM) | relative viability ([1]; first compound 2 µM) | relative viability ([2]; first compound 0.02 µM) | relative viability ([2]; first compound 0.06325 µM) | relative viability ([2]; first compound 0.2 µM) | relative viability ([2]; first compound 0.6325 µM) | relative viability ([2]; first compound 2 µM) | relative viability ([3]; first compound 0.02 µM) | relative viability ([3]; first compound 0.06325 µM) | relative viability ([3]; first compound 0.6325 µM) | relative viability ([3]; first compound 2 µM) | relative viability ([4]; first compound 0.02 µM) | relative viability ([4]; first compound 0.06325 µM) | relative viability ([4]; first compound 0.2 µM) | relative viability ([4]; first compound 0.6325 µM) | relative viability ([4]; first compound 2 µM) | relative viability ([3]; first compound 0.2 µM)
NCI-H322M | 0.53 | 0.582 | 0.656 | 0.624 | 0.549 | 0.536 | 0.516 | 0.554 | 0.477 | 0.525 | 0.736 | 0.857 | 0.855 | 0.7 | 0.845 | 0.891 | 0.951 | 0.891 | 1.08 | 
NCI-H358 | 0.685 | 0.814 | 0.878 | 0.691 | 0.38 | 0.137 | 0.143 | 0.138 | 0.127 | 0.14 | 0.322 | 0.447 | 0.348 | 0.29 | 0.722 | 0.652 | 0.562 | 0.642 | 0.508 | 0.373
NCI-H441 | 0.651 | 0.751 | 0.898 | 0.684 | 0.47 | 0.432 | 0.581 | 0.518 | 0.524 | 0.409 | 0.729 | 0.816 | 0.957 | 0.793 | 0.686 | 0.802 | 0.831 | 0.858 |  | 0.781
NCI-H460 | 0.593 | 0.717 | 0.78 | 0.768 | 0.467 | 0.104 | 0.185 | 0.226 | 0.287 | 0.191 | 0.48 | 0.567 | 0.535 | 0.487 | 0.874 | 0.945 | 1.2 | 1.17 | 0.638 | 0.54
NCI-H520 | 0.249 | 0.286 | 0.321 | 0.292 | 0.3 | 0.657 | 0.813 | 0.727 | 0.772 | 0.601 | 0.674 | 0.685 | 0.661 | 0.424 | 0.83 | 0.699 | 0.856 | 0.63 | 0.601 | 0.471
NCI-H596 | 0.731 | 0.799 | 0.787 | 0.699 | 0.552 | 0.762 | 0.86 | 0.723 |  | 1.02 | 0.641 | 0.816 | 0.792 | 0.723 | 0.935 | 0.957 | 1.01 |  | 0.81 | 0.829
NCI-H647 | 0.631 | 0.725 | 0.562 | 0.821 | 0.575 | 0.367 | 0.479 | 0.547 | 0.426 | 0.408 | 0.489 | 0.72 | 0.55 | 0.471 | 0.988 | 0.998 | 1.19 | 1.15 | 0.941 | 0.542
NCI-H650 | 0.535 | 0.553 | 0.524 | 0.586 | 0.514 | 0.917 | 1.04 | 1.16 | 0.988 | 1.01 | 0.444 | 0.46 | 0.49 | 0.465 | 0.687 | 0.656 | 0.738 | 0.717 | 0.78 | 0.428
